The subject of assay [1] is DIO mice. The following applies: 4 weeks' treatment of DIO mice; cited from earlier work.
Assay [2] concerns diet-induced obese (DIO) mice. Conditions: treatment of DIO mice with CB1 antagonist; cited from earlier work.
The test system of assay [3] is DIO mice. The following applies: chronic administration in DIO mice; cited from earlier work.
Assay [4] concerns epididymal CD11b+F4/80+ ATMs and CD11c+ M1 ATMs. The assay is described as follows: Flow cytometry of epididymal adipose tissue macrophages in DIO intervention study. Format: in vivo, mice. (Flow cytometry measures light scatter and fluorescence of single cells or particles in a stream.)
For assay [5], the system named is 12-week HFD-fed DIO mice. The assay is described as follows: Oral glucose tolerance test in DIO intervention study. Format: in vivo. The following applies: 21 consecutive days.
The test system of assay [6] is 12-week HFD-fed DIO mice. The assay is described as follows: DIO intervention study: body weight, fat mass, fat pad weight, food intake. Format: in vivo. The following applies: 21 consecutive days.
The test system of assay [7] is 12-week HFD-fed CB2−/− DIO mice. The assay is described as follows: DIO intervention study in CB2-/- mice: body weight, adiposity, appetite. Format: in vivo. The following applies: AM251 10 mg/kg oral gavage, 21 consecutive days.
Assay [8] relates to 20 week 21% HFD-fed DIO mice. The following applies: 15 days of CB2 agonism; cited from earlier work.
The subject of assay [9] is 6-week 36% HFD-fed mice. The following applies: cited from earlier work.
[10] abbreviates: SR144528 10 mg/kg oral gavage, versus vehicle-treated mice.
[11] abbreviates: AM251 10 mg/kg oral gavage, WT DIO mice.
Where [12] appears, read: 6-week 36% HFD-fed mice, treatment for 15 days.
Setting [13] is: Deveaux et al., 15 day treatment of 6-week HFD-fed DIO.
Where [14] appears, read: JWH-133 5 mg/kg oral gavage, 21 consecutive days, 5 mg/kg.

“Also recorded” adds a separate entry of the source.

As to `Cc1c(C(=O)NN2CCCCC2)nn(-c2ccc(Cl)cc2Cl)c1-c1ccc(Cl)cc1` [SR141716A], in [1], the adipose tissue inflammation entry was “decreased”; the body weight entry is “rapid and sustained weight loss”. For the same compound, in assay [2], the metabolic impairments result is given as “amelioration” and the obesity result was “amelioration”.
Turning to `CCCCCc1cc(O)c2c(c1)OC(C)(C)[C@@H]1CCC(C)=C[C@@H]21` [THC, delta-9-tetrahydrocannabinol], in [3], the HFD-induced adiposity entry is recorded as “reduces”, the HFD-induced polyphagia entry is recorded as “reduces” and the HFD-induced weight gain entry was “reduces”.
In the case of SR144528, the adipose tissue inflammation entry in assay [4] (SR144528 10 mg/kg oral gavage, 21 consecutive days, versus vehicle-treated mice) is on record as “no changes”. Further, the glucose tolerance result in assay [5] (setting [10]) is given as “no changes”. Also, in [6] (setting [10]), the body weight entry is listed as “no changes” and the food intake entry is “no changes”.
Consider `Cc1c(C(=O)NN2CCCCC2)nn(-c2ccc(Cl)cc2Cl)c1-c1ccc(I)cc1` [AM251], for which, in assay [1], the body weight result is “rapid and sustained weight loss”. Moreover, in assay [7], the adiposity entry is reported as “reduced”, the appetite entry is reported as “suppressed” and the body weight result is on record as “weight loss”. Also, the “epididymal ATM numbers” value in [4] (AM251 10 mg/kg oral gavage, after 3 weeks of treatment, 10 mg/kg) is given as “remained constant; also recorded: persistent abundance”. Besides, the fat pad mass entry in assay [6] (AM251 10 mg/kg oral gavage) is “reduced”. For the same compound, in assay [6] (setting [11]), the adiposity entry was “reduced”, the appetite result is reported as “suppressed” and the body weight entry is “weight loss”.
For the compound `CCCn1c(C)c(C(=O)c2cccc3ccccc23)c2ccccc21` [JWH-015], in assay [8], the adiposity entry is recorded as “reduced”, the appetite response entry was “anorectic response”, the body weight loss entry is on record as “approximately 10%” and the glucose tolerance entry is listed as “improved”. Moreover, in assay [8], the lipolysis entry is recorded as “increased”.
For the compound `CCCC(C)(C)c1ccc2c(c1)OC(C)(C)[C@@H]1CC=C(C)C[C@@H]21` [JWH-133], in assay [9] (setting [12]), the “adipose tissue inflammatory markers” value was “increased” and the body weight entry is listed as “no change”. In addition, in [9] (setting [13]), the obesity entry is listed as “potentiated” and the “white adipose tissue expression of Emr1 (macrophage marker F4/80)” value was “increased”. The “numbers of M1 ATMs per gram of fat” value in [4] (JWH-133 5 mg/kg oral gavage, 21 consecutive days) was “increased”. In assay [4] (setting [14]), the “numbers of ATMs per gram of fat” value was “increased and more”; the “total ATMs” value was “promoted persistence; also recorded: stable abundance”. In addition, the glucose tolerance result in assay [5] (JWH-133 5 mg/kg oral gavage) is recorded as “did not significantly alter”. In assay [6] (JWH-133 5 mg/kg oral gavage), the body weight entry was “did not significantly alter”, the fat mass result is “did not significantly alter” and the food intake result is on record as “did not significantly alter”. Moreover, in assay [6] (JWH-133 5 mg/kg oral gavage, 5 mg/kg), the fat pad mass entry is listed as “fat pad loss; also recorded: fat pad shrinkage”.
Take `COc1ccc(C(=O)c2c(C)n(CCN3CCOCC3)c3cc(I)ccc23)cc1` [AM630]: the “adipose tissue inflammatory markers” value in assay [9] (setting [12]) is recorded as “reduced”. Also, the ATMs result in [9] (6-week 36% HFD-fed mice) was “reduced”.
